Columns and labels:
Assay type in all cases: cell-based, hepatitis C virus (genotype 1a-H77)
[1] = system: HCV replicon with a D168E mutation in a 1a-H77 background; assay: transient replicon assay, D168E mutation in 1a-H77 background; conditions: Hepatitis C virus, read-out: EC50 in a transient replicon assay with a D168E mutation in a 1a-H77 background
Method in brief: (§1)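 Transient transfection of mutant replicon RNA (1a-H77 with NS2–NS5B, or 1b-N with NS3–NS5B plus E1202G/S2204I) by electroporation into IFN-cured Huh7 cells, plated at 7.5×10^3 cells per well in DMEM with 5% FBS. Serial compound dilutions added 4 h post-transfection (0.5% DMSO final).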

[2] = system: HCV replicon with a D168V mutation in a 1a-H77 background; assay: transient replicon assay, D168V mutation in 1a-H77 background; conditions: Hepatitis C virus, read-out: EC50 in a transient replicon assay with a D168V mutation in a 1a-H77 background
Method in brief: as §1

[3] = system: HCV replicon with a R155K mutation in a 1a-H77 background; assay: transient replicon assay, R155K mutation in 1a-H77 background; conditions: Hepatitis C virus, read-out: EC50 in a transient replicon assay with a R155K mutation in a 1a-H77 background
Method in brief: as §1

SMILES | EC50 [1] | EC50 [2] | EC50 [3]
Cc1onc(C(=O)N[C@H]2CCCCC/C=C\[C@@H]3C[C@@]3(C(=O)NS(=O)(=O)C3(C)CC3)NC(=O)[C@@H]3C[C@@H](Oc4nc5cc(F)ccc5nc4C(F)(F)F)CN3C2=O)c1C [Example 108, N-((2R,6S,13aS,14aR,16aS,Z)-2-(7-fluoro-3-(trifluoromethyl)quinoxalin-2-yloxy)-14a-(1-methylcyclopropylsulfonylcarbamoyl)-5,16-dioxo-1,2,3,5,6,7,8,9,10,11,13a,14,14a,15,16,16a-hexadecahydrocyclopropa[e]pyrrolo[1,2-a][1,4]diazacyclopentadecin-6-yl)-4,5-dimethylisoxazole-3-carboxamide] | < 3 nM | < 25 nM | < 1 nM
CC1(S(=O)(=O)NC(=O)[C@@]23C[C@H]2/C=C\CCCCC[C@H](NC(=O)c2ccon2)C(=O)N2C[C@H](Oc4nc5cc(F)ccc5nc4C(F)(F)F)C[C@H]2C(=O)N3)CC1 [Example 109, N-((2R,6S,13aS,14aR,16aS,Z)-2-(7-fluoro-3-(trifluoromethyl)quinoxalin-2-yloxy)-14a-(1-methylcyclopropylsulfonylcarbamoyl)-5,16-dioxo-1,2,3,5,6,7,8,9,10,11,13a,14,14a,15,16,16a-hexadecahydrocyclopropa[e]pyrrolo[1,2-a][1,4]diazacyclopentadecin-6-yl)isoxazole-3-carboxamide] | < 3 nM | < 25 nM | < 1 nM
CC(C)(C)OC(=O)N[C@H]1CCCCC/C=C\[C@@H]2C[C@@]2(C(=O)NS(=O)(=O)C2(C)CC2)NC(=O)[C@@H]2C[C@@H](Oc3nc4cc(F)ccc4nc3C(F)(F)F)CN2C1=O [Example 110, tert-butyl (2R,6S,13aS,14aR,16aS,Z)-2-(7-fluoro-3-(trifluoromethyl)quinoxalin-2-yloxy)-14a-(1-methylcyclopropylsulfonylcarbamoyl)-5,16-dioxo-1,2,3,5,6,7,8,9,10,11,13a,14,14a,15,16,16a-hexadecahydrocyclopropa[e]pyrrolo[1,2-a][1,4]diazacyclopentadecin-6-ylcarbamate] | 3 to 20 nM | 25 to 50 nM | < 1 nM
CC(C)(C)OC(=O)N[C@H]1CCCCC/C=C\[C@@H]2C[C@@]2(C(=O)NS(=O)(=O)C2CC2)NC(=O)[C@@H]2C[C@@H](Oc3nc4c(F)cccc4nc3C(F)(F)F)CN2C1=O [Example 112, tert-butyl (2R,6S,13aS,14aR,16aS,Z)-14a-(cyclopropylsulfonylcarbamoyl)-2-(8-fluoro-3-(trifluoromethyl)quinoxalin-2-yloxy)-5,16-dioxo-1,2,3,5,6,7,8,9,10,11,13a,14,14a,15,16,16a-hexadecahydrocyclopropa[e]pyrrolo[1,2-a][1,4]diazacyclopentadecin-6-ylcarbamate] | 3 to 20 nM | 25 to 50 nM | < 1 nM
Cc1cc(C(=O)N[C@H]2CCCCC/C=C\[C@@H]3C[C@@]3(C(=O)NS(=O)(=O)C3CC3)NC(=O)[C@@H]3C[C@@H](Oc4nc5c(F)cccc5nc4C(F)(F)F)CN3C2=O)no1 [Example 113, N-((2R,6S,13aS,14aR,16aS,Z)-14a-(cyclopropylsulfonylcarbamoyl)-2-(8-fluoro-3-(trifluoromethyl)quinoxalin-2-yloxy)-5,16-dioxo-1,2,3,5,6,7,8,9,10,11,13a,14,14a,15,16,16a-hexadecahydrocyclopropa[e]pyrrolo[1,2-a][1,4]diazacyclopentadecin-6-yl)-5-methylisoxazole-3-carboxamide] | < 3 nM | < 25 nM | < 1 nM
CC(C)(C)OC(=O)N[C@H]1CCCCC/C=C\[C@@H]2C[C@@]2(C(=O)NS(=O)(=O)C2(C)CC2)NC(=O)[C@@H]2C[C@@H](Oc3nc4c(F)cccc4nc3C(F)(F)F)CN2C1=O [Example 114, tert-butyl (2R,6S,13aS,14aR,16aS,Z)-2-(8-fluoro-3-(trifluoromethyl)quinoxalin-2-yloxy)-14a-(1-methylcyclopropylsulfonylcarbamoyl)-5,16-dioxo-1,2,3,5,6,7,8,9,10,11,13a,14,14a,15,16,16a-hexadecahydrocyclopropa[e]pyrrolo[1,2-a][1,4]diazacyclopentadecin-6-ylcarbamate] | 3 to 20 nM | 50 to 250 nM | < 1 nM

From US9493506B2 (Enanta Pharmaceuticals, Inc., priority 2010, dated 2016)
